US20240002416A1 (Rheinische-Friedrich-Wilhelms-Universität Bonn, priority 2020, published 2024)

Experiments:
[1] = target: T1, human MRGPRX4-83L (Homo sapiens, UniProt Q96LA9); experiment: Calcium assay (human MRGPRX4 83L), recombinant astrocytes; assay type: cell-based
T1 construct: host or cells: CHO β-arrestin cells
Method in brief: (§1)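 β-Arrestin recruitment measured in recombinant CHO cells expressing human MRGPRX4, read as β-galactosidase enzyme-fragment complementation. Calcium mobilization run in recombinant astrocytes expressing the 83L variant or in LN229 glioblastoma cells natively expressing the 83S variant.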

[2] = target: T2, MRGPRX4-83S (Homo sapiens, UniProt Q96LA9, L83S); experiment: Calcium assay (human glioblastoma LN229 cells expressing the MRGPRX4-83S); assay type: cell-based; set-up: LN229 glioblastoma cells natively expressing the MRGPRX4-83S; endogenous in cells; host or cells: LN229 human glioblastoma cells; details: for Emax: LN-229
T2 sequence (Q96LA9 whole entry L83S): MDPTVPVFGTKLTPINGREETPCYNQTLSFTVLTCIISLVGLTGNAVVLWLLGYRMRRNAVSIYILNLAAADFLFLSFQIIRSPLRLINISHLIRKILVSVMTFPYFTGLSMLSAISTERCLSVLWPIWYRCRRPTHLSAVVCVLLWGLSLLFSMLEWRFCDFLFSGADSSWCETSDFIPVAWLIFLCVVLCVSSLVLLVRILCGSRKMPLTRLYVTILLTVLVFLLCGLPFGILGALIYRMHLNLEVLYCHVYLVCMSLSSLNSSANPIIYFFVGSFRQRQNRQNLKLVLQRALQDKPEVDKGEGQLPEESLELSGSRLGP
Method in brief: as §1

[3] = target: T2, MRGPRX4-83S; experiment: β-arrestin assay (CHO β-arrestin human MRGPRX4-83S); assay type: cell-based; set-up: host or cells: CHO β-arrestin cells
Method in brief: as §1

[4] = target: T1, human MRGPRX4-83L; experiment: β-arrestin assay (CHO β-arrestin ARMS1-ProLink 2 human MRGPRX4 83L); assay type: cell-based
Method in brief: as §1

[5] = Table 4, calcium mobilization, MRGPRX4-83L, read-out: EC50 ± SEM
[6] = Table 4, efficacy based on maximal effect of 1 μM B-16 (set as 100%), read-out: Emax
[7] = Table 3, efficacy based on 30 μM H-1 (set as 100%), read-out: Emax
[8] = Table 3, calcium mobilization, LN229 cells, MRGPRX4-83S, read-out: EC50 ± SEM
[9] = Table 3, efficacy based on 100 nM B-16 (set as 100%), read-out: Emax
[10] = Table 3, β-arrestin recruitment, CHO cells, MRGPRX4-83S, read-out: EC50 ± SEM
[11] = Table 4, efficacy based on maximal effect of 100 nM B-16 (set as 100%), read-out: Emax
[12] = Table 4, β-arrestin recruitment, CHO cells, MRGPRX4-83L, read-out: EC50 ± SEM
[13] = Table 1, calcium mobilization, MRGPRX4-83L, read-out: EC50 ± SEM
[14] = Table 1, efficacy based on maximal effect of 1 μM B-16 (set as 100%), read-out: Emax
[15] = Table 2, efficacy based on 30 μM H-1 (set as 100%), read-out: Emax
[16] = Table 2, calcium mobilization, LN229 cells, MRGPRX4-83S, read-out: EC50 ± SEM
[17] = Table 2, efficacy based on 100 nM B-16 (set as 100%), read-out: Emax
[18] = Table 2, β-arrestin recruitment, CHO cells, MRGPRX4-83S, read-out: EC50 ± SEM
[19] = Table 1, efficacy based on maximal effect of 100 nM B-16 (set as 100%), read-out: Emax
[20] = Table 1, β-arrestin recruitment, CHO cells, MRGPRX4-83L, means of 3-4 experiments, read-out: EC50 ± SEM

T1 sequence (Q96LA9 whole entry): as the sequence (Q96LA9 whole entry L83S) above, with S83L counted along it

| SMILES | EC50 [1, 5] [nM] | Emax [1, 6] [%] | Emax [2, 7] [%] | EC50 [2, 8] [nM] | Emax [3, 9] [%] | EC50 [3, 10] [nM] | melting point [°C] | Emax [4, 11] [%] | EC50 [4, 12] [nM] | EC50 [1, 13] [nM] | Emax [1, 14] [%] | Emax [2, 15] [%] | EC50 [2, 16] [nM] | Emax [3, 17] [%] | EC50 [3, 18] [nM] | Emax [4, 19] [%] | EC50 [4, 20] [nM] | also measured |
| --- | --- | --- | --- | --- | --- | --- | --- | --- | --- | --- | --- | --- | --- | --- | --- | --- | --- | --- |
| C#CCn1c(=O)c2c(nc(CCc3ccccc3F)n2C)n(CCCCP(=O)(O)O)c1=O [B-28, (4-(8-(2-Fluorophenethyl)-7-methyl-2,6-dioxo-1-(prop-2-yn-1-yl)-1,2,6,7-tetrahydro-3H-purin-3-yl)butyl)phosphonic acid] | 39.7 ± 9.6 | 62 | 92 | 0.284 ± 0.074 | 78 | 1.48 ± 0.18 | 217 to 219 | 118 | 113 ± 39 |  |  |  |  |  |  |  |  |  |
| C#CCn1c(=O)c2[nH]c(CCc3cccc(C)c3)nc2n(CCCCP(=O)(O)O)c1=O [B-5, (4-(8-(3-Methylphenethyl)-2,6-dioxo-1-(prop-2-yn-1-yl)-1,2,6,7-tetrahydro-3H-purin-3-yl)butyl)phosphonic acid] |  |  |  |  |  |  | 244 to 246 |  |  | 492 ± 38 | 91 | 96 | 18.1 ± 1.5 | 103 | 34.3 ± 7.6 | 99 | 15200 ± 520 |  |
| C#CCn1c(=O)c2[nH]c(CCc3cccc(F)c3)nc2n(CCCCP(=O)(O)O)c1=O [B-3, (4-(8-(3-Fluorophenethyl)-2,6-dioxo-1-(prop-2-yn-1-yl)-1,2,6,7-tetrahydro-3H-purin-3-yl)butyl)phosphonic acid] |  |  |  |  |  |  | 154 to 156 |  |  | 601 ± 103 | 110 | 118 | 63.1 ± 18.6 | 93 | 33.9 ± 5.1 | 89 | 7940 ± 1450 |  |
| C#CCn1c(=O)c2c(nc(CCc3ccccc3Br)n2CC2CCC2)n(CCCCP(=O)(O)O)c1=O [B-45, (4-(8-(2-Bromophenethyl)-7-(cyclobutylmethyl)-2,6-dioxo-1-(prop-2-yn-1-yl)-1,2,6,7-tetrahydro-3H-purin-3-yl)butyl)phosphonic acid] | 12.7 | 101 | 97 | 0.32 ± 0.087 | 93 | 0.298 ± 0.05 | 167 to 169 | 99 | 85.1 ± 27.9 |  |  |  |  |  |  |  |  |  |
| C#CCn1c(=O)c2c(nc(CCc3ccccc3Br)n2CCN)n(CCCCP(=O)(O)O)c1=O [B-51, (4-(7-(2-Aminoethyl)-8-(2-bromophenethyl)-2,6-dioxo-1-(prop-2-yn-1-yl)-1,2,6,7-tetrahydro-3H-purin-3-yl)butyl)phosphonic acid] | 79.8 ± 36.7 | 102 | 107 | 1.48 ± 0.4 | 99 | 0.932 ± 0.177 | 159 to 161 | 93 | 566 ± 106 |  |  |  |  |  |  |  |  |  |
| C#CCn1c(=O)c2c(nc(CCc3ccccc3Br)n2C(C)C)n(CCCCP(=O)(O)O)c1=O [B-46, (4-(8-(2-Bromophenethyl)-7-isopropyl-2,6-dioxo-1-(prop-2-yn-1-yl)-1,2,6,7-tetrahydro-3H-purin-3-yl)butyl)phosphonic acid] | 0.684 ± 0.073 | 108 | 109 | 0.79 ± 0.262 | 91 | 0.075 ± 0.0184 | 109 to 111 | 116 | 13.6 ± 6.1 |  |  |  |  |  |  |  |  |  |
| C#CCn1c(=O)c2c(nc(CCc3ccccc3Br)n2CC2CCCCC2)n(CCCCP(=O)(O)O)c1=O [B-36, (4-(8-(2-Bromophenethyl)-7-(cyclohexylmethyl)-2,6-dioxo-1-(prop-2-yn-1-yl)-1,2,6,7-tetrahydro-3H-purin-3-yl)butyl)phosphonic acid] | 25.2 ± 3 | 109 | 112 | 0.787 ± 0.164 | 84 | 4.28 ± 0.83 | 143 to 145 | 95 | 1250 ± 410 |  |  |  |  |  |  |  |  |  |
| C#CCn1c(=O)c2[nH]c(CCc3cccc(C(F)(F)F)c3)nc2n(CCCCP(=O)(O)O)c1=O [B-6, (4-(2,6-Dioxo-1-(prop-2-yn-1-yl)-8-(3-(trifluoromethyl)phenethyl)-1,2,6,7-tetrahydro-3H-purin-3-yl)butyl)phosphonic acid] |  |  |  |  |  |  | 223 to 226 |  |  | 267 ± 66 | 99 | 150 | 38.2 ± 10.9 | 100 | 20.5 ± 2.4 | 114 | 11900 ± 1800 |  |
| C#CCn1c(=O)c2c(nc(CCc3ccccc3Br)n2CCCl)n(CCCCP(=O)(O)O)c1=O [B-50, (4-(8-(2-Bromophenethyl)-7-(2-chloroethyl)-2,6-dioxo-1-(prop-2-yn-1-yl)-1,2,6,7-tetrahydro-3H-purin-3-yl)butyl)phosphonic acid] |  |  |  |  |  |  | 197 to 199 |  |  |  |  |  |  |  |  |  |  | EC50 [1]: 2.28 ± 0.75 nM; Emax [1]: 118%; EC50 [2]: 0.095 ± 0.0427 nM; Emax [2]: 111%; EC50 [3]: 0.301 ± 0.021 nM; Emax [3]: 84%; EC50 [4]: 24.3 ± 3.2 nM; Emax [4]: 91% |
| C#CCn1c(=O)c2[nH]c(CCc3cccc(Br)c3)nc2n(CCCCP(=O)(O)O)c1=O [B-4, (4-(8-(3-Bromophenethyl)-2,6-dioxo-1-(prop-2-yn-1-yl)-1,2,6,7-tetrahydro-3H-purin-3-yl)butyl)phosphonic acid] |  |  |  |  |  |  | 240 to 242 |  |  | 80.8 ± 16.8 | 100 | 109 | 4.69 ± 1.58 | 110 | 3.24 ± 1.16 | 103 | 2140 ± 850 |  |
| C#CCn1c(=O)c2[nH]c(CCc3cccc(OC)c3)nc2n(CCCCP(=O)(O)OCC)c1=O [D-3, Ethyl hydrogen (4-(8-(3-methoxyphenethyl)-2,6-dioxo-1-(prop-2-yn-1-yl)-1,2,6,7-tetrahydro-3H-purin-3-yl)butyl)phosphonate] |  |  |  |  |  |  | 118 to 120 |  |  | 36.3 ± 1.8 | 114 | 111 | 2.65 ± 0.72 | 110 | 5.8 ± 1.41 | 112 | 407 ± 710 |  |
| C#CCn1c(=O)c2[nH]c(CCc3ccccc3OC)nc2n(CCCCP(=O)(O)O)c1=O [B-7, (4-(8-(2-Methoxyphenethyl)-2,6-dioxo-1-(prop-2-yn-1-yl)-1,2,6,7-tetrahydro-3H-purin-3-yl)butyl)phosphonic acid] |  |  |  |  |  |  | 169 to 172 |  |  | 397 ± 32 | 108 | 132 | 10.3 ± 1.3 | 101 | 8.94 ± 1.38 | 103 | 3120 ± 1200 |  |
| C#CCn1c(=O)c2c(nc(CCc3c(Cl)cccc3Cl)n2CC)n(CCCCP(=O)(O)O)c1=O [B-34, (4-(8-(2,6-Dichlorophenethyl)-7-ethyl-2,6-dioxo-1-(prop-2-yn-1-yl)-1,2,6,7-tetrahydro-3H-purin-3-yl)butyl)phosphonic acid] | 2 ± 0.94 | 97 | 104 | 0.363 ± 0.109 | 110 | 0.146 ± 0.033 | 207 to 209 | 95 | 9.02 ± 1.49 |  |  |  |  |  |  |  |  |  |
